Test system: not listed separately
Assay: Kinetics of hydrolysis followed by 1H NMR
Type: physicochemical
Conditions: 1H NMR, even at 278K
Experimental: Kinetics for Hydrolysis. Although complexes ZL01-ZL04, ZL07, ZL38 and ZL43 hydrolyzed too rapidly to monitor by ^1H NMR, The kinetics of hydrolysis for complexes ZL25, ZL33, ZL37 and ZL54 were followed by ^1H NMR at different temperatures. For this, solutions of the complexes with a final concentration of 0.2 mM in 5% MeOD-d4/95% D2O (v/v) were prepared by dissolution of the complexes in MeOD-d4 followed by rapid dilution using D2O with a pH* of about 3 (acidified with HClO4), so that the aqua ligand was not deprotonated. ^1H NMR spectra were taken after various time intervals. The rates of hydrolysis were determined by fitting plots of concentrations (determined from ^1H NMR peak integrals) versus time to a pseudo first-order equation using ORIGIN version 7.0. The Arrhenius activation energy (Ea), activation enthalpies (ΔH^¢), and activation entropy (ΔS^‡) for compounds ZL25, ZL33, ZL37 and ZL54 were determined from the slopes of the Arrhenius and intercepts of Eyring plots.
The rates of hydrolysis of compounds ZL01-ZL04, ZL07, ZL25, ZL33, ZL37, ZL38, ZL43 and ZL54 in a 5% MeOD-d4/95% D2O were monitored by ^1H NMR at different temperature from 278 to 298 K by the observation of new peaks over time due to aqua adduct formation. Five percent MeOD was used to improve solubility, and acidic conditions (D2O, pH* 3) were used to prevent the deprotonation of the aqua complex as a secondary reaction. […] The percentage of aqua peak formation for ZL25, ZL33, ZL37 and ZL54 was plotted against time and was fitted to pseudofirst order kinetics (FIG. 3), and their halflife times were calculated (Table 1). The Arrhenius activation energy (Ea), activation enthalpy (ΔH^¢), and activation entropy (ΔS^‡) of compound ZL25, ZL33, ZL37 and ZL54 are listed in Table 4. The large negative ΔS^‡value for compound ZL54 is notable. The extent of hydrolysis at equilibrium is medium for all compounds, ranged from 30% to 60%.

Row | SMILES | rate of hydrolysis (in words)
1 | Cc1c(C)c(C)[c-](C)c1C.[Cl-].[Cl-].[Ir+3].c1cnc2c(c1)ccc1cccnc12 [ZL07, [(η^5-C5Me5)Ir(phen)Cl]Cl] | too rapid to be observed
2 | Cc1c(C)c(-c2ccccc2)[c-](C)c1C.O=C([O-])c1ccccn1.[Cl-].[Ir+3] (stereo not shown) [ZL38, [(η^5-C5Me4C6H5)Ir(η^2-C5H4N-2-CO2)Cl]] | too rapid to be observed

Test system: 9-ethylguanine (9-EtG)
Assay: Interactions with nucleobases: 9-EtG adduct formation (1H NMR)
Type: binding
Conditions: 10 min; 1 mM, 1 mol equiv 9-EtG (ZL33A: 2 mol equiv), D2O, 310 K
Experimental: (§1) Interactions with Nucleobases. The reaction of ZL01, ZL03, ZL04, ZL07, ZL25, ZL33, ZL37, ZL38, ZL43 and ZL54 and ZL33A with nucleobases typically involved addition of a solution containing 1-2 mol equiv of nucleobase in D2O, to an equilibrium solution of ZL01, ZL03, ZL04, ZL07, ZL25, ZL33, ZL37, ZL38, ZL43, ZL54 and ZL33A in a solution of 5% MeOD-d4/95% D2O (v/v). ^1H NMR spectra of these solutions were recorded at 310 K after various time intervals.
(§2) Since DNA is a potential target site for transition metal anticancer complexes,^18 nucleobase binding reactions of compounds ZL01, ZL03, ZL04, ZL07, ZL25, ZL33, ZL33A, ZL37, ZL38, ZL43 and ZL54 with nucleobase models 9-ethylguanine (9-EtG) and 9-ethyladenine (9-EtA), were investigated. Solutions of ZL01, ZL03, ZL04, ZL07, ZL25, ZL33, ZL37, ZL38, ZL43 and ZL54 (1 mM) (containing an equilibrium mixture of these complexes and their respective aqua adducts) with 1 mol equivalent of 9-EtG or 9-EtA in D2O were prepared, and ^1H NMR spectra were recorded at different time intervals.
Interactions with Nucleobases. Since DNA is a potential target site for transition metal anticancer complexes,^23 the binding of 9-ethylguanine (9-EtG) to complexes ZL47, ZL49, ZL69, ZL74 and ZL107 was studied.

Row | SMILES | Reaction with 9-EtG, extent of adduct formation [%]
3 | Cc1c(C)c(C)[c-](C)c1C.[Cl-].[Cl-].[Ir+3].c1cnc2c(c1)ccc1cccnc12 [ZL07, [(η^5-C5Me5)Ir(phen)Cl]Cl] | 73.1
4 | Cc1c(C)c(-c2ccccc2)[c-](C)c1C.O=C([O-])c1ccccn1.[Cl-].[Ir+3] (stereo not shown) [ZL38, [(η^5-C5Me4C6H5)Ir(η^2-C5H4N-2-CO2)Cl]] | 100

Same assay, conditions: 24 h; 1 mM, 1 mol equiv 9-EtG (ZL33A: 2 mol equiv), D2O, 310 K

Row | SMILES | Reaction with 9-EtG, extent of adduct formation [%]
5 | Cc1c(C)c(-c2ccccc2)[c-](C)c1C.O=C([O-])c1ccccn1.[Cl-].[Ir+3] (stereo not shown) [ZL38, [(η^5-C5Me4C6H5)Ir(η^2-C5H4N-2-CO2)Cl]] | 100

Test system: 9-ethyladenine (9-EtA)
Assay: Interactions with nucleobases: 9-EtA adduct formation (1H NMR)
Type: binding
Conditions: 10 min; 1 mM, 1 mol equiv 9-EtA, D2O, 310 K
Experimental: as §1, §2

Row | SMILES | Reaction with 9-EtA, extent of adduct formation [%]
6 | Cc1c(C)c(C)[c-](C)c1C.[Cl-].[Cl-].[Ir+3].c1cnc2c(c1)ccc1cccnc12 [ZL07, [(η^5-C5Me5)Ir(phen)Cl]Cl] | 0
7 | Cc1c(C)c(-c2ccccc2)[c-](C)c1C.O=C([O-])c1ccccn1.[Cl-].[Ir+3] (stereo not shown) [ZL38, [(η^5-C5Me4C6H5)Ir(η^2-C5H4N-2-CO2)Cl]] | 76.0

Same assay, conditions: 24 h; 1 mM, 1 mol equiv 9-EtA, D2O, 310 K

Row | SMILES | Reaction with 9-EtA, extent of adduct formation [%]
8 | Cc1c(C)c(C)[c-](C)c1C.[Cl-].[Cl-].[Ir+3].c1cnc2c(c1)ccc1cccnc12 [ZL07, [(η^5-C5Me5)Ir(phen)Cl]Cl] | 0
9 | Cc1c(C)c(-c2ccccc2)[c-](C)c1C.O=C([O-])c1ccccn1.[Cl-].[Ir+3] (stereo not shown) [ZL38, [(η^5-C5Me4C6H5)Ir(η^2-C5H4N-2-CO2)Cl]] | 76.0

Test system: human ovarian A2780 cancer cells
Assay: Cancer cell cytotoxicity, SRB assay
Type: cell-based
Conditions: 24 h exposure, 72 h recovery, SRB; read-out: A2780 IC50
Experimental: Cancer Cell Cytotoxicity. After plating, human ovarian A2780 cancer cells were treated with Ir^III complexes on day 3 at concentrations ranging from 0.5 μM to 100 μM. Solutions of the Ir^III complexes were made up in 0.125% DMSO to assist dissolution. Stock solutions of the IrIII complexes were firstly prepared in DMSO to assist dissolution, and then diluted into 0.9% saline and medium. After plating 5000 A2780 cells per well on day 1, IrIII complexes were added to the cancer cells on day 3 at concentrations ranging from 0.05 μM to 100 μM. Cells were exposed to the complexes for 24 h, washed, supplied with fresh medium, allowed to grow for three doubling times (72 h), and then the protein content measured (proportional to cell survival) using the sulforhodamine B (SRB) assay.^15 […]. The standard errors are based on two independent experiments of three replicates each.

Row | SMILES | IC50 [µM]
10 | Cc1c(C)c(C)[c-](C)c1C.[Cl-].[Cl-].[Ir+3].c1cnc2c(c1)ccc1cccnc12 [ZL07, [(η^5-C5Me5)Ir(phen)Cl]Cl] | > 100
11 | Cc1c(C)c(-c2ccccc2)[c-](C)c1C.O=C([O-])c1ccccn1.[Cl-].[Ir+3] (stereo not shown) [ZL38, [(η^5-C5Me4C6H5)Ir(η^2-C5H4N-2-CO2)Cl]] | > 100

Test system: A549 cancer cell line
Assay: Cytotoxicity, MTT assay (Brabec group)
Type: cell-based
Conditions: 72 h incubation, MTT
Experimental: (§3) The cytotoxicity test of ZL07, ZL33, ZL38 and ZL54 against A2780, SW480, A549 and CH1 cell lines was performed by Viktor Brabec group (Institute of Biophysics, Academy of Sciences of the Czech Republic). After plating, the cells were treated with ZL07, ZL33, ZL38 and ZL54. After 72h of incubation 10 μl of MTT (2.5 mg/ml; CALBIOCHEM) was added to each well and incubated for 4 h in culture conditions. At the end of the incubation period the medium was removed and the formazan product was dissolved in 100 μl DMSO. The cell viability was evaluated by measurement of the absorbance at 570 nm, using an Absorbance Reader SUNRICE TECAN SCHOELLER. […] All experiments were made in quadruplicate.

Row | SMILES | IC50 [µM]
12 | Cc1c(C)c(C)[c-](C)c1C.[Cl-].[Cl-].[Ir+3].c1cnc2c(c1)ccc1cccnc12 [ZL07, [(η^5-C5Me5)Ir(phen)Cl]Cl] | > 130
13 | Cc1c(C)c(-c2ccccc2)[c-](C)c1C.O=C([O-])c1ccccn1.[Cl-].[Ir+3] (stereo not shown) [ZL38, [(η^5-C5Me4C6H5)Ir(η^2-C5H4N-2-CO2)Cl]] | > 130

Same assay, conditions: highest test concentration 130 μM

Row | SMILES | cytotoxicity towards A549 (in words)
14 | Cc1c(C)c(-c2ccccc2)[c-](C)c1C.O=C([O-])c1ccccn1.[Cl-].[Ir+3] (stereo not shown) [ZL38, [(η^5-C5Me4C6H5)Ir(η^2-C5H4N-2-CO2)Cl]] | nontoxic

Test system: CH1 cancer cell line
Assay: Cytotoxicity, MTT assay (Brabec group)
Type: cell-based
Conditions: 72 h incubation, MTT
Experimental: as §3

Row | SMILES | IC50 [µM]
15 | Cc1c(C)c(C)[c-](C)c1C.[Cl-].[Cl-].[Ir+3].c1cnc2c(c1)ccc1cccnc12 [ZL07, [(η^5-C5Me5)Ir(phen)Cl]Cl] | 50.7 ± 2.8
16 | Cc1c(C)c(-c2ccccc2)[c-](C)c1C.O=C([O-])c1ccccn1.[Cl-].[Ir+3] (stereo not shown) [ZL38, [(η^5-C5Me4C6H5)Ir(η^2-C5H4N-2-CO2)Cl]] | > 130

Same assay, conditions: highest test concentration 130 μM

Row | SMILES | cytotoxicity towards CH1 (in words)
17 | Cc1c(C)c(C)[c-](C)c1C.[Cl-].[Cl-].[Ir+3].c1cnc2c(c1)ccc1cccnc12 [ZL07, [(η^5-C5Me5)Ir(phen)Cl]Cl] | moderate activity
18 | Cc1c(C)c(-c2ccccc2)[c-](C)c1C.O=C([O-])c1ccccn1.[Cl-].[Ir+3] (stereo not shown) [ZL38, [(η^5-C5Me4C6H5)Ir(η^2-C5H4N-2-CO2)Cl]] | nontoxic

Test system: SW480 cancer cell line
Assay: Cytotoxicity, MTT assay (Brabec group)
Type: cell-based
Conditions: 72 h incubation, MTT
Experimental: as §3

Row | SMILES | IC50 [µM]
19 | Cc1c(C)c(C)[c-](C)c1C.[Cl-].[Cl-].[Ir+3].c1cnc2c(c1)ccc1cccnc12 [ZL07, [(η^5-C5Me5)Ir(phen)Cl]Cl] | 80.1 ± 1.5
20 | Cc1c(C)c(-c2ccccc2)[c-](C)c1C.O=C([O-])c1ccccn1.[Cl-].[Ir+3] (stereo not shown) [ZL38, [(η^5-C5Me4C6H5)Ir(η^2-C5H4N-2-CO2)Cl]] | > 130

Same assay, conditions: highest test concentration 130 μM

Row | SMILES | cytotoxicity towards SW480 (in words)
21 | Cc1c(C)c(C)[c-](C)c1C.[Cl-].[Cl-].[Ir+3].c1cnc2c(c1)ccc1cccnc12 [ZL07, [(η^5-C5Me5)Ir(phen)Cl]Cl] | moderate activity
22 | Cc1c(C)c(-c2ccccc2)[c-](C)c1C.O=C([O-])c1ccccn1.[Cl-].[Ir+3] (stereo not shown) [ZL38, [(η^5-C5Me4C6H5)Ir(η^2-C5H4N-2-CO2)Cl]] | nontoxic
